Experimental data published in patent US20230265389A1, “METHOD OF TRANSFECTING MACROPHAGES” (The University Court of The University of Edinburgh, priority 2020, published 2023).

Columns and labels:
hMDMs = test: Phagocytosis assay with pHrodo E. coli red beads; format: cell-based, human; details: GFP-transfected hMDMs relative to untransfected hMDMs
Protocol: Cells were seeded in 96 well plates at a density of 200,000 per well in triplicate wells and left to adhere overnight. The following day, medium was aspirated and replaced with TexMACS medium containing NucBlue reagent (Invitrogen) and incubated for 30 min at 37° C. to stain nuclei. Medium was aspirated, cells washed in PBS, and then 100 µl PBS was added to cells. 100 µl of pHrodo E. coli red beads (diluted 1:10 in PBS) was added to the cells, and the cells were observed using an Operetta (PerkinElmer) to photograph fluorescence every 5 minutes over 145 minutes using a 40X objective. Images were analysed using Columbus. Nuclei were identified by NucBlue staining, and pHrodo red fluorescence intensity was measured in a cytoplasmic ring region around the nucleus. Fluorescence is reported as average pHrodo red fluorescence per nucleus.

[1] = system: human monocyte-derived macrophages; test: Phase/contrast microscopy of transfected macrophages cultured with STING inhibitor; format: cell-based
Source text: (D) In vitro phagocytosis assay of untransfected hMDMs (control) versus GFP-transfected macrophages treated with BX-795 (GFP + BX-795), with M2-like polarising factors (GFP + BX-795 + IL4/IL13 or IL10) or DMSO control (GFP). (E) Serum liver function tests and histological analysis of picrosirius red (PSR) staining of collagen in chronic CCl4mice treated with cryopreserved hMDM (cryo), GFP-transfected hMDM treated with DMSO (GFP), GFP-transfected hMDM treated with BX-795 (GFP+B) or PBS vehicle (vehicle). *p<0.05 one-way ANOVA.
Monocyte-derived macrophages were harvested, counted and resuspended at a density of 5 × 10^7 cells/mL of CliniMACS Electroporation Buffer (Miltenyi). 25-100 µg/mL of pMax-GFP plasmid (Lonza) was mixed with the cell suspension for electroporation. For electroporation, 100 µl of cell/plasmid mix was introduced into 0.2 cm electroporation cuvettes and electroporation conducted with the CliniMACS Prodigy Electroporator (Miltenyi). Parameters assessed were 1st pulse voltage and type, and 2nd pulse voltage, type and length. Following electroporation, cells were cultured as above, with or without the STING inhibitor BX-795 (Invivogen) up to a concentration of 10 µM.

O=C(NCCCNc1nc(Nc2cccc(NC(=O)N3CCCC3)c2)ncc1I)c1cccs1 [BX-795]
phagocytic capacity (average fluorescence of pHRodo beads per cell), of non-genetically modified hMDMs (hMDMs): approximately 66%
cell health and GFP expression ([1]; inhibitor at 10 µM): some loss of cells
cell health and GFP expression ([1]; inhibitor up to 8 µM): remained healthy and GFP-expressing
